Data: paper PMC8536679, “A small molecule produced by Lactobacillus species blocks Candida albicans filamentation by inhibiting a DYRK1-family kinase” (Nature Communications, 2021)

Target: T1, Yak1 (Candida albicans, UniProt A0A1D8PH81)
T1 construct: full-length, C-terminal 6xHis-3xFlag tag kept; both YAK1 alleles tagged and overexpressed in C. albicans; native purification on anti-Flag gel, eluted with 3xFlag peptide
Test: ADP-Glo kinase assay with DYRKtide
Format: biochemical
Settings: 10 µM ATP, 0.2 mg/mL DYRKtide, 2.5 mM MgCl2, HEPES-NaOH pH 7.2, 40 min; ATP site proposed by docking only

T1 sequence (A0A1D8PH81 entry or part of it): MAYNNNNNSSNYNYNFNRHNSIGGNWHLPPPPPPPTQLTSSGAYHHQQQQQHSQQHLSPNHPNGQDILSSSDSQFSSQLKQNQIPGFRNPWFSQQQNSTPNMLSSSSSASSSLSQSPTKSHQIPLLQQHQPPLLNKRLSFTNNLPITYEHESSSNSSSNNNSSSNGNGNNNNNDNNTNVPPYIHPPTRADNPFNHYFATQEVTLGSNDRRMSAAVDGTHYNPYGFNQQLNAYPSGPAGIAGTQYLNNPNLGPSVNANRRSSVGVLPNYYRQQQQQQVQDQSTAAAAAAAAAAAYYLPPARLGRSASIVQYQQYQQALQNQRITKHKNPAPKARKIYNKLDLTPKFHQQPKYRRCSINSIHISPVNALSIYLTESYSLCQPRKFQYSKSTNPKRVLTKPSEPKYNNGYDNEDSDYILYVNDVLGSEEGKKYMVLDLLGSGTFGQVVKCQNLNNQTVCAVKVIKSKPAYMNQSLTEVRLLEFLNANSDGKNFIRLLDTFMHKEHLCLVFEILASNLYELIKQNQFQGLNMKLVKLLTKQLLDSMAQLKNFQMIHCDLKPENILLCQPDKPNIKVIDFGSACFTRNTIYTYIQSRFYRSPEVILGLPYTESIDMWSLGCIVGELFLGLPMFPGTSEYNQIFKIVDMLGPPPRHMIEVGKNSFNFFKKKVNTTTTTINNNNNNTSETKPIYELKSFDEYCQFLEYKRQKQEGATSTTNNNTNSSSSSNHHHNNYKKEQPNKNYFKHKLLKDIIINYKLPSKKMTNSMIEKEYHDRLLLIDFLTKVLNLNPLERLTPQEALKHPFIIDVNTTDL

| Compound | concentration-dependent inhibition |
| --- | --- |
| CCOC(=O)c1nccc2c1[nH]c1ccccc12 [1-ECBC, 1-ethoxycarbonyl-β-carboline] | 1-ECBC and harmine, a known β-carboline scaffold DYRK inhibitor, exhibited concentration-dependent inhibition of Yak1 activity |
| COc1ccc2c(c1)[nH]c1c(C)nccc12 [harmine] | 1-ECBC and harmine inhibit Yak1 activity in a concentration-dependent manner |
